Test results reported in patent publication US20120184590A1, “FORMULATIONS OF INDOLE-3-CARBINOL DERIVED ANTITUMOR AGENTS WITH INCREASED ORAL BIOAVAILABILITY” (UNIVERSITY OF KANSAS, priority 2009, published 2012).
≈ marks a conversion by molar mass, not a printed value.

Assay: Solubility of SR13668 in various solvents
Assay type: physicochemical
Details: for solubility: thermodynamic from solid
Text: The other three systems are similar to the Solutol solutions, but the Solutol is the best candidate having the lowest freezing point (see Table 10) and a high SR13668 solubility (see Table 11). […] Vit E TPGS is water soluble natural-source vitamin E d-alpha tocopheryl polyethyleneglycol succinate, 387 IU/g. Myrj is Polyethylene Glycol (50) Monostearate.

In the case of `CCOC(=O)c1ccc2[nH]c3c(OC)c4[nH]c5ccc(C(=O)OCC)cc5c4cc3c2c1` [SR13668, 2,10-dicarbethoxy-6-methoxy-5,7-dihydro-indolo-(2,3-b)carbazole], the “aqueous solubility” value was “extremely low”, the solubility (65 °C, aqueous with cosolvent or surfactant or cyclodextrin, Solutol, 65-70 ° C., HPLC) was 7000 µg/mL (≈ 16300 µM) and the solubility (65 °C, aqueous with cosolvent or surfactant or cyclodextrin, Vitamin E TPGS, 65-70 ° C., UV) was 5500 µg/mL (≈ 12800 µM). It also gave a solubility (65 °C, organic solvent or mixture, Gelucire 44/14, 65-70 ° C., UV) of 4260 µg/mL (≈ 9900 µM), a solubility (65 °C, organic solvent or mixture, Gelucire 50/13, 65-70 ° C., UV) of 4150 µg/mL (≈ 9640 µM) and a solubility (65 °C, organic solvent or mixture, Myrj 52, 65-70 ° C., UV) of 6700 µg/mL (≈ 15600 µM). It also gave a solubility (65 °C, organic solvent or mixture, Myrj 53, 65-70 ° C., UV) of 6800 µg/mL (≈ 15800 µM), a solubility (65 °C, organic solvent or mixture, PEG-400, 65-70 ° C., UV) of 9000 µg/mL (≈ 20900 µM) and a solubility (65 °C, organic solvent or mixture, PEG-400 New, 65-70 ° C., UV) of 7600 µg/mL (≈ 17700 µM). The solubility (65 °C, organic solvent or mixture, PEG-1000, 65-70 ° C., UV) was 8150 µg/mL (≈ 18900 µM), the solubility (65 °C, organic solvent or mixture, PEG-2000, 65-70 ° C., UV) was 8800 µg/mL (≈ 20400 µM) and the solubility (fassgf or other biorelevant, Simulated Intestinal Fluid, RT, HPLC) was 0.0075 µg/mL (≈ 0.0174 µM). For the same compound, the solubility (oil or lipid, Corn Oil, RT, HPLC) was 108 µg/mL (≈ 251 µM), the solubility (oil or lipid, Safflower Oil, RT, HPLC) was 77 µg/mL (≈ 179 µM) and the solubility (oil or lipid, Sesame Oil, RT, HPLC) was 47 µg/mL (≈ 109 µM). For the same compound, the solubility (oil or lipid, Soybean Oil, RT, HPLC) was 55 µg/mL (≈ 128 µM), the solubility (oil or lipid, Sunflower Oil, RT, HPLC) was 66 µg/mL (≈ 153 µM) and the solubility (organic solvent or mixture, 1-octanol, RT, HPLC) was 123 µg/mL (≈ 286 µM). It also gave a solubility (organic solvent or mixture, Absolute Ethanol, RT, HPLC) of 75 µg/mL (≈ 174 µM), a solubility (organic solvent or mixture, Acetone, RT, HPLC) of 950 µg/mL (≈ 2210 µM) and a solubility (organic solvent or mixture, Acetonitrile, RT, HPLC) of 84.9 µg/mL (≈ 197 µM). For the same compound, the solubility (organic solvent or mixture, Chemophore EL, RT, HPLC) was 264 µg/mL (≈ 613 µM), the solubility (organic solvent or mixture, DMSO, RT, UV) was 106000 µg/mL (≈ 246000 µM) and the solubility (organic solvent or mixture, Ethanol, RT, UV) was 148 µg/mL (≈ 344 µM). For the same compound, the solubility (organic solvent or mixture, Ethyl Acetate, RT, HPLC) was 230 µg/mL (≈ 534 µM), the solubility (organic solvent or mixture, Glycerin, RT, HPLC) was 47 µg/mL (≈ 109 µM) and the solubility (organic solvent or mixture, Labrasol, RT, UV) was 380 µg/mL (≈ 883 µM). The solubility (organic solvent or mixture, Methanol, RT, UV) was 86.3 µg/mL (≈ 200 µM), the solubility (organic solvent or mixture, Methylene Chloride, RT, HPLC) was 62 µg/mL (≈ 144 µM) and the solubility (organic solvent or mixture, PEG-400, RT, UV) was 880 µg/mL (≈ 2040 µM). It also gave a solubility (organic solvent or mixture, PEG-400 New, RT, UV) of 1370 µg/mL (≈ 3180 µM), a solubility (organic solvent or mixture, Pluronic F-127, 120 ° C., HPLC) of 9480 µg/mL (≈ 22000 µM) and a solubility (organic solvent or mixture, Propylene Glycol, RT, HPLC) of 84 µg/mL (≈ 195 µM). It also gave a solubility (Simulated Gastric Fluid, RT, HPLC) of 0.014 µg/mL (≈ 0.0325 µM) and a solubility (Water, RT, HPLC) of 0.01 µg/mL (≈ 0.0232 µM).
